US20100041597A1, “PEPTIDES TARGETED TO PROTEIN KINASE C ISOFORMS AND USES THEREOF” (priority 2005, published 2010)
Entries after “also recorded” stand apart in the source; their conditions may differ. One block for each substance: values may come before it.

How the values were obtained:
PKC-α = PKC-α (Homo sapiens, UniProt P17252); test: ELISA-based competitive binding assay with purified PKC isoform; set-up: key to Affinity for PKC isoform α: —: no detectable affinity; Low to very low affinity at 10X or 20X or both PRE concentrations in at least one cell line in the cell extract assay; Low affinity in purified isoform assay.; Moderate affinity at 10X or 20X or both PRE concentrations in at least one cell line in the cell extract assay.; High affinity at 10X or 20X or both PRE concentrations in at least one cell line in the cell extract assay; High affinity in purified isoform assay; conditions: for inhibition at 50 µM / inhibition at 100 µM / inhibition at 200 µM / calculated binding capacity (100-% n) after subtraction of the DMSO apparent binding capacity: purified PKC-α; for inhibition at 50 µM / inhibition at 100 µM / inhibition at 200 µM: read-out: calculated binding capacity (100-% n) after subtraction of the DMSO apparent binding capacity; for Affinity for PKC isoform α: Purified isoform, Table 20; for targeting of PKC-α: purified isoform, Tables 14-19; for isoform specificity: purified isoforms α, βI, βII, δ, ε, ζ compared
Method: (§1) Peptides PRE 1, 2, 3, 4, 5, 6, 7, 8, 9, 10, 11, 12 and 13 (see Table 3) were tested for their ability to interfere with binding of PKC isoform-specific antibodies to their target PKC isoforms using a competitive binding assay and purified PKC isoforms.
(§2) Procedure: Competitive binding was assessed using a 96 well plate ELISA-based assay as described below.
(§3) Greiner 96 well ELISA plates were coated with the appropriate PKC isoform diluted in PBSN (PBS with Calcium/Magnesium+0.05% Sodium azide w/w). 50 μL/well at 250 ng/mL was used. Control wells contained PBSN only. Plates were incubated overnight at 4° C.
(§4) The plates were washed 3 times with 200 μL of dH2O per well, then 100 μL of blocking solution was added per well and the plate incubated for 1 h at 37° C. The washing steps with dH2O were repeated and 50 μL of the appropriate PRE solution (PRE stock solution [20 mM in DMSO] diluted in PBSN) was added and the plate incubated for 1 h at room temperature.
(§5) After incubation, 5 μL of 1.1:400 anti-PKC (isoform specific antibody) was added per well (to provide a final concentration of 1:4000). For PKC-epsilon, 1.1:800 dilution was used and for PKC-zeta a 1.1:100 dilution was used due to high and low binding affinity, respectively. The plates were then incubated 1 h at room temperature, followed by washing with dH2O as described above.
(§6) 50 μL of 1:1000 dilution of Alkaline Phosphatase (AP) conjugated antibody (anti-rabbit for all except zeta, which was anti-goat) was then added and the plate incubated for 1 h at room temperature. Washing with dH2O was then repeated. Finally, 100 μL of pNPP solution in pNPP buffer (2 mM MgCl2, 100 mM Sodium bicarbonate in water, pH 9.8) was added to all wells and incubated for 8 minutes for α, βI, βII ε, and ζ, or for 15-20 mins for […] (until sufficient coloration is observed). The reaction was stopped by addition of Stop solution (2N NaOH) and the absorbance at 405 nm was read on a Galaxy Plate reader.
(§7) Controls were PKC without PRE; blank controls, and controls containing the final concentrations of DMSO used for solubilizing the PREs. The non-specific binding capacity related to DMSO was also measured.
(§8) The antibodies used were as follows: anti-PKC α (Cat. No. SC-208); anti-PKC βI (Cat. No. SC-209); anti-PKC βII (Cat. No. SC-210); anti-PKC δ (Cat. No. SC-213); anti-PKC ε (Cat. No. SC-214); anti-PKC ζ (Cat. No. SC-216-G) (all from Santa Cruz Biotechnology, Inc.). The AP-conjugated antibodies were obtained from Jackson Immuno Research Laboratories (West Grove, Pa.).
(§9) Calculations: The OD values measured at 405 nm represent the free PKC coated per well.
(§10) OD405 PKC alone−Blank OD405 of each sample=OD405 coated isoform
(§11) (OD405 of sample X/OD405 coated isoform)×100=% n that represents the percentage of X binding compared to control.
(§12) 100-% n measures the relative binding capacity of X towards the tested isoform.
(§13) The apparent binding capacity of the DMSO samples was then subtracted from X binding capacity.
(§14) All measurements were made in triplicate and the values in the table represent the averaged calculated binding capacity values after subtraction of the DMSO apparent binding capacity (averaged from 12 values, respectively 10.80, 11.20 and 16.40 corresponding to the concentrations of DMSO used to dilute the […] at 200, 100 and 50 μM respectively). The results allow for quantitative comparison of the binding capacity of each PRE towards an individual isoform within each table, but not among isoforms due to differences in sensitivity of the specific antibodies toward the secondary antibody. This applies particularly to PKC-delta. As noted above, the colour development duration was increased 2-3 times and, as a result, the OD405 measurements may be overestimated for this isoform.

PKC-δ = PKC-δ (Homo sapiens, UniProt Q05655); test: as above; set-up: key to Affinity for PKC isoform δ: —: no detectable affinity; Low to very low affinity at 10X or 20X or both PRE concentrations in at least one cell line in the cell extract assay; Low affinity in purified isoform assay.; Moderate affinity at 10X or 20X or both PRE concentrations in at least one cell line in the cell extract assay.; High affinity at 10X or 20X or both PRE concentrations in at least one cell line in the cell extract assay; High affinity in purified isoform assay; conditions: for inhibition at 50 µM / inhibition at 100 µM / inhibition at 200 µM / calculated binding capacity (100-% n) after subtraction of the DMSO apparent binding capacity: purified PKC-δ, may be overestimated (longer colour development); for inhibition at 50 µM / inhibition at 100 µM / inhibition at 200 µM: read-out: calculated binding capacity (100-% n) after subtraction of the DMSO apparent binding capacity; for Affinity for PKC isoform δ: Purified isoform, Table 20; for targeting of / affinity for PKC-δ: purified isoform, Tables 14-19
PKC-δ, sequence (Q05655 whole entry, canonical isoform): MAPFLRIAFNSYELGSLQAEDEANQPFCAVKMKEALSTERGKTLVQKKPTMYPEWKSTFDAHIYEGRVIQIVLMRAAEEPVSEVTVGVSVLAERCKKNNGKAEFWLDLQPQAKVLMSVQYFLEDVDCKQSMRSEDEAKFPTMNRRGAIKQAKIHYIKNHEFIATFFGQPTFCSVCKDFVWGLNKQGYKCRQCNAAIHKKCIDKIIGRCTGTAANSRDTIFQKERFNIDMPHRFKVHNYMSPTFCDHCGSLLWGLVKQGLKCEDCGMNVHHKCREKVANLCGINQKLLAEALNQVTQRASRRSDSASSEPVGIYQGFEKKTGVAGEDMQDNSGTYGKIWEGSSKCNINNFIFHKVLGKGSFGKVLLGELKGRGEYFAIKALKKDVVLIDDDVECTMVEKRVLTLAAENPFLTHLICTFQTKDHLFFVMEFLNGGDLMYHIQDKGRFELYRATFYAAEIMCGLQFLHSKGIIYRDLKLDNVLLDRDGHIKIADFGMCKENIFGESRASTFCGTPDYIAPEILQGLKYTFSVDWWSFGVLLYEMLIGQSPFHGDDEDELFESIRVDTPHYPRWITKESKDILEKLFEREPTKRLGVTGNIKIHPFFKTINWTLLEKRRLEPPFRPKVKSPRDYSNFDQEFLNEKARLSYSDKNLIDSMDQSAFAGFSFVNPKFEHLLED
Method: as §1, §2, §3, §4, §5, §6, §7, §8, §9, §10, §11, §12, §13, §14

- inhibition at 50 µM (PKC-α; PRE 50 μM): 17.5%
- inhibition at 100 µM (PKC-α; PRE 100 μM): 26.5%
- inhibition at 200 µM (PKC-α; PRE 200 μM): 22.6%
- Affinity for PKC isoform α (PKC-α): H
- targeting of PKC-α (PKC-α): targeted most strongly
- inhibition at 50 µM (PKC-δ; PRE 50 μM): 48.3%
- inhibition at 100 µM (PKC-δ; PRE 100 μM): 56%
- inhibition at 200 µM (PKC-δ; PRE 200 μM): 57%
- Affinity for PKC isoform δ (PKC-δ): H
- targeting of / affinity for PKC-δ (PKC-δ): targeted most strongly
Substance: Ac-AKGIQEVKGGDAQNLIGISI-NH2 [PRE 3]
- isoform specificity (PKC-α): “universal” PKC targeting peptide, with the exception of the PKC-βII isoform

- inhibition at 50 µM (PKC-α; PRE 50 μM): 0%
- inhibition at 100 µM (PKC-α; PRE 100 μM): 0%
- inhibition at 200 µM (PKC-α; PRE 200 μM): 0%
- Affinity for PKC isoform α (PKC-α): —
- inhibition at 50 µM (PKC-δ; PRE 50 μM): 0.2%
- inhibition at 100 µM (PKC-δ; PRE 100 μM): 0%
- inhibition at 200 µM (PKC-δ; PRE 200 μM): 4.31%
- Affinity for PKC isoform δ (PKC-δ): L
Substance: Ac-AKGIQEVKGGKDAQNLIGISI-NH2 [PRE 5]

- Affinity for PKC isoform α (PKC-α): —
- calculated binding capacity (100-% n) after subtraction of the DMSO apparent binding capacity (PKC-δ; PRE 200 μM): 9.47
- Affinity for PKC isoform δ (PKC-δ): —
Substance: Ac-ISIGILNQADK-NH2 [PRE 10]

- Affinity for PKC isoform α (PKC-α): L
- Affinity for PKC isoform δ (PKC-δ): —
Substance: Ac-ISIGILQNADK-NH2 [PRE 7]

- Affinity for PKC isoform α (PKC-α): —
- Affinity for PKC isoform δ (PKC-δ): L
Substance: Ac-KDANQLIGISI-NH2 [PRE 6]

- Affinity for PKC isoform α (PKC-α): —
- Affinity for PKC isoform δ (PKC-δ): L
Substance: Ac-KDAQNLI-NH2 [PRE 12]

- inhibition at 50 µM (PKC-α; PRE 50 μM): 6.46%
- inhibition at 100 µM (PKC-α; PRE 100 μM): 21.9%
- inhibition at 200 µM (PKC-α; PRE 200 μM): 22.8%
- Affinity for PKC isoform α (PKC-α): H
- targeting of PKC-α (PKC-α): targeted most strongly
- isoform specificity (PKC-α): specificity for PKC-A
- inhibition at 50 µM (PKC-δ; PRE 50 μM): 29.2%
- inhibition at 100 µM (PKC-δ; PRE 100 μM): 30.7%
- inhibition at 200 µM (PKC-δ; PRE 200 μM): 17.3%
- Affinity for PKC isoform δ (PKC-δ): H
Substance: Ac-KDAQNLIGISI-NH2 [PRE 4, Ac-KDAQNLIGISI-NH2]
- targeting of / affinity for PKC-δ (PKC-δ): targeted most strongly; also recorded: showed an affinity for PKC-6

- Affinity for PKC isoform α (PKC-α): —
- Affinity for PKC isoform δ (PKC-δ): L
Substance: Ac-RDAQNLI-NH2 [PRE 13]

- Affinity for PKC isoform α (PKC-α): L
- Affinity for PKC isoform δ (PKC-δ): H
- targeting of / affinity for PKC-δ (PKC-δ): targeted most strongly
Substance: Ac-RDAQNLIGISI-NH2 [PRE 11]

- calculated binding capacity (100-% n) after subtraction of the DMSO apparent binding capacity (PKC-α; PRE 100 μM): 5.35
- Affinity for PKC isoform α (PKC-α): —
- calculated binding capacity (100-% n) after subtraction of the DMSO apparent binding capacity (PKC-δ; PRE 50 μM): 16.23
- calculated binding capacity (100-% n) after subtraction of the DMSO apparent binding capacity (PKC-δ; PRE 100 μM): 19.27
- calculated binding capacity (100-% n) after subtraction of the DMSO apparent binding capacity (PKC-δ; PRE 200 μM): 9.95
- Affinity for PKC isoform δ (PKC-δ): L
Substance: Ac-isigilgnadk-NH2 [PRE 9]

- Affinity for PKC isoform α (PKC-α): —
- Affinity for PKC isoform δ (PKC-δ): —
Substance: ILEDKGGDAQNLIGISI [PRE 8]

- calculated binding capacity (100-% n) after subtraction of the DMSO apparent binding capacity (PKC-α; PRE 50 μM): 0.69
- calculated binding capacity (100-% n) after subtraction of the DMSO apparent binding capacity (PKC-α; PRE 200 μM): 2.10
- Affinity for PKC isoform α (PKC-α): —
- Affinity for PKC isoform δ (PKC-δ): H
- targeting of / affinity for PKC-δ (PKC-δ): targeted most strongly
Substance: RRKKGGKDFVVKR [PRE 1]
